Test results taken from US9615576B2, “Pesticidal compositions and processes related thereto” (Dow AgroSciences LLC, priority 2011, dated 2017).

Experiments:
[1] = system: Corn Earworm (CEW) (Helicoverpa zea); assay: Bioassays on Corn Earworm (CEW), 128-well diet tray assay; format: in vivo; conditions: 168 h, 50 μg/cm^2 test compound on artificial diet, second instar larvae, 25° C., five to seven days, average of eight wells, read-out: CEW Rating (% mortality)
Summary of the method: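 Second-instar larvae (one to five per well) placed on artificial diet treated with 50 μg/cm^2 compound in 90:10 acetone-water, dried; eight wells per compound. Held at 25° C, 14:10 light-dark, five to seven days; percent mortality averaged over wells.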

[2] = system: Beet Armyworm (BAW) (Spodoptera exigua); assay: Bioassays on Beet Armyworm (BAW), 128-well diet tray assay; format: in vivo; conditions: 168 h, 50 μg/cm^2 test compound on artificial diet, second instar larvae, 25° C., five to seven days, average of eight wells, read-out: BAW Rating (% mortality)
Summary of the method: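 Second-instar larvae (1–5 per well) on artificial diet surface-treated with 50 μg/cm^2 compound applied in 90:10 acetone-water and dried; eight wells per compound. Held 5–7 days at 25° C., 14:10 light-dark. Percent mortality scored per well and averaged over eight wells.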

SMILES | melting point | mortality at 50 µg/cm2 [1] | mortality at 50 µg/cm2 [2]
NC(=O)c1ccc(/C=C/C(c2cc(Cl)cc(Cl)c2)C(F)(F)F)cc1 (stereo not drawn) [AC2] | 110 to 112 °C | – | –
Cc1cc(/C=C/C(c2cc(Cl)cc(Cl)c2)C(F)(F)F)ccc1C(=O)NCC(=O)NC1CS(=O)(=O)C1 (stereo not drawn) [AC81] | – | 0% | 50 to 100%
CC(=O)c1ncnn1-c1ccc(/C=C/C(c2cc(Cl)cc(Cl)c2)C(F)(F)F)cc1 (stereo not drawn) [DC24] | – | 0% | 0%
O=C(NC1C[S+]([O-])C1)c1ccc(/C=C/C(c2cc(Cl)c(F)c(Cl)c2)C(F)(F)F)cc1F (stereo not drawn) [AC87] | – | 50 to 100% | 50 to 100%
O=[N+]([O-])c1ncn(-c2ccc(/C=C/C(c3cc(Cl)cc(Cl)c3)C(F)(F)F)cc2)n1 (stereo not drawn) [DC22] | – | 0% | 0%
Cc1cc(/C=C/C(c2cc(Cl)cc(Cl)c2)C(F)(F)F)ccc1C(=O)NCC(=O)NCC(F)(F)F (stereo not drawn) [AC24] | – | 50 to 100% | 50 to 100%
O=C(NC1CSC1)c1ccc(/C=C/C(c2cc(Cl)c(Cl)c(Cl)c2)C(F)(F)F)cc1Cl (stereo not drawn) [AC29] | – | 50 to 100% | 50 to 100%
Cc1cc(/C=C/C(c2ccc(Cl)c(Cl)c2)C(F)(F)F)ccc1C(=O)NCc1ccc(Cl)nc1 (stereo not drawn) [AC37] | – | 50 to 100% | 50 to 100%
Fc1ccccc1C(/C=C/c1ccc(-n2cncn2)cc1)C(F)(F)F (stereo not drawn) [DC10] | – | 0% | 0%
FC(F)(F)C(/C=C/c1ccc(-n2cncn2)c(Cl)c1)c1cc(Cl)cc(Cl)c1 (stereo not drawn) [DC50] | – | 50 to 100% | 50 to 100%
O=C(NC1CS(=O)(=O)C1)c1ccc(/C=C/C(c2cc(Cl)cc(Cl)c2)C(F)(F)F)cc1F (stereo not drawn) [AC83, (E)-4-(3-(3,5-dichlorophenyl)-4,4,4-trifluorobut-1-en-1-yl)-N-(1,1-dioxidothietan-3-yl)-2-fluorobenzamide] | – | 50 to 100% | 50 to 100%
O=C(Cc1ccc(Cl)nc1)NCc1ccc(/C=C/C(c2cc(Cl)c(Cl)c(Cl)c2)C(F)(F)F)cc1Cl (stereo not drawn) [CC14] | – | 0% | 50 to 100%
O=C(NCc1ccc(/C=C/C(c2cc(Cl)c(Cl)c(Cl)c2)C(F)(F)F)cc1C(F)(F)F)c1cccnc1 (stereo not drawn) [CC23] | – | 50 to 100% | 50 to 100%
N#Cc1cc(/C=C/C(c2cc(Cl)c(Cl)c(Cl)c2)C(F)(F)F)ccc1-n1cnc([N+](=O)[O-])n1 (stereo not drawn) [DC40, (E)-2-(3-nitro-1H-1,2,4-triazol-1-yl)-5-(4,4,4-trifluoro-3-(3,4,5-trichlorophenyl)but-1-en-1-yl)benzonitrile] | – | 50 to 100% | 50 to 100%
N#Cc1cc(/C=C/C(c2cc(Cl)cc(Cl)c2)C(F)(F)F)ccc1-n1cncn1 (stereo not drawn) [DC29] | – | 50 to 100% | 50 to 100%
O=C(NCc1ccc(/C=C/C(c2cc(Cl)c(Cl)c(Cl)c2)C(F)(F)F)c2ccccc12)C1CC1 (stereo not drawn) [CC48] | – | 0% | 0%
O=C(NOc1ccc(/C=C/C(c2cc(Cl)c(Cl)c(Cl)c2)C(F)(F)F)cc1)C1CC1 (stereo not drawn) [CC52, (E)-N-(4-(4,4,4-trifluoro-3-(3,4,5-trichlorophenyl)but-1-en-1-yl)phenoxy)cyclopropanecarboxamide] | – | 0% | 50 to 100%
Nc1cc(/C=C/C(c2cc(Cl)cc(Cl)c2)C(F)(F)F)ccc1-n1cncn1 (stereo not drawn) [DC55] | – | 0% | 0%
Cc1cc(/C=C/C(c2cc(Cl)cc(Cl)c2)C(F)(F)F)ccc1C(=O)NCc1ccoc1 (stereo not drawn) [AC20] | – | 50 to 100% | 50 to 100%
O=C(NNc1ccc(/C=C/C(c2cc(Cl)c(Cl)c(Cl)c2)C(F)(F)F)cc1)C1CC1 (stereo not drawn) [CC50, (E)-N′-(4-(4,4,4-trifluoro-3-(3,4,5-trichlorophenyl)but-1-en-1-yl)phenyl)cyclopropanecarbohydrazide] | – | 50 to 100% | 50 to 100%
O=C(CNC(=O)c1ccc(/C=C/C(c2cc(Cl)c(F)c(Cl)c2)C(F)(F)F)cc1F)NCC(F)(F)F (stereo not drawn) [AC68] | – | 50 to 100% | 50 to 100%
O=C(CC(F)(F)F)NCC(=O)n1ccc2cc(/C=C/C(c3cc(Cl)c(F)c(Cl)c3)C(F)(F)F)ccc21 (stereo not drawn) [BC13, (E)-N-(2-(5-(3-(3,5-dichloro-4-fluorophenyl)-4,4,4-trifluorobut-1-en-1-yl)-1H-indol-1-yl)-2-oxoethyl)-3,3,3-trifluoropropanamide] | – | 50 to 100% | 50 to 100%
O=C(NCc1ccc(Cl)nc1)c1ccc(/C=C/C(c2cc(Cl)c(F)c(Cl)c2)C(F)(F)F)cc1Br (stereo not drawn) [AC63] | – | 50 to 100% | 50 to 100%
